# Earlier results in US20210308436A1, “COMPLETE UPPER RESPIRATORY TRACT CLEANSING SYSTEM AND ITS USE” (priority 2013, published 2021).
# Counter-ions that a name gives are not always drawn.
# System: perennial allergic rhinitis
# Conditions: 1% solution in normal saline, once every 48 hours for 4 weeks, vs placebo wash (normal saline only)
smiles,measurement,value
CN[C@@H](C)[C@H](O)c1ccccc1 [ephedrine hydrochloride],peak nasal inspiratory flow rates,significant improvement
same,symptom scores,significant improvement
